Results taken from patent publication US12583939B2, “Bispecific antigen binding molecules that bind HER2, and methods of use thereof” (Regeneron Pharmaceuticals, Inc., priority 2020, dated 2026).

Key:
hErbB2-MMH = biological target: T1, hErbB2-MMH (Homo sapiens, UniProt P04626); test: Surface plasmon resonance binding kinetics at 25° C.
T1 construct: myc-myc-hexahistidine (C); made in house
Description: Equilibrium dissociation constants (KD values) for hErbB2.mmh binding to anti-HER2×HER2 antibodies conjugated with either M830 or M1 were determined using a real-time surface plasmon resonance biosensor assay on a MASS-2 instrument. The MASS-2 sensor surface was derivatized by amine coupling with a monoclonal mouse anti-human Fc antibody (REGN2567) to capture anti-HER2×HER2 ADC and parent unmodified antibodies expressed with human constant regions. […] Human hErbB2 was prepared in-house expressing a C-terminal myc-myc-hexahistidine tag (hErbB2-MMH). […] Association of hErbB2-MMH to each of the captured ADCs and monoclonal antibodies was monitored for 3 minutes. Subsequently, hErbB2-MMH dissociation was monitored for 10 minutes in HBS-EP running buffer. Anti-human Fc surface was regenerated by a brief injection of 20 mM H3PO4. All binding kinetic experiments were performed at 25° C.
Kinetic association (ka) and dissociation (kd) rate constants were determined by fitting the real-time sensorgrams to a 1:1 binding model using Scrubber 2.0c curve fitting software. All sensorgrams were double referenced by subtracting buffer injection sensorgram signal from the corresponding analyte sensorgram, thereby removing artifacts caused by dissociation of the antibody from the capture surface. Binding dissociation equilibrium constants (KD) and dissociative half-lives (t½) were calculated from the kinetic rate constants as: […]

T47D cells [1] = test: Internalization and cluster formation, 3D spheroids; format: cell-based; settings: 3D Spheroids (SD55); 10 ug/mL
Description: (§1) For 2D monolayer assays, T47D cells were plated on collagen-coated 96-well optical plates (Greiner, Cat #655936) at 25,000 cells/well in complete media and incubated overnight at 37° C. in 5% CO2. For 3D spheroids, cells were plated in low adhesion 96-well plates (Corning #4515) at 10,000 cells/well and incubated for 72 hours. The day of the assay, cells were incubated for 30 minutes with cold (4° C.) media containing 10 ug/mL of Alexa647 (Thermo, Cat #A37573) labeled antibodies. After, cells were washed twice (5 minutes, 100 ul, 4° C., complete medium) and incubated in complete media at 37° C. for 60 minutes. Cells were incubated for 30 minutes with cold (4° C.) media containing 4 ug/mL of Alexa488 anti-Human Fab (Jackson #109-547-003). […] After, the solution was replaced with PBS. Images were acquired with a Zeiss Spinning Disc Confocal Microscope and analyzed using Zeiss Zen Blue software. Quantification of the number of intracellular vesicles and surface clusters was performed in single confocal sections of representative images.

T47D cells [2] = test: Internalization and cluster formation, 2D monolayers; format: cell-based; settings: 2D monolayers (SD53); 10 ug/mL
Description: as §1

Antigen Bound (hErbB2-MMH): 177.8 RU
ka (hErbB2-MMH): 290000 M⁻¹ s⁻¹
kd (hErbB2-MMH): ≤1e-05 s⁻¹
Substance: CompAb2: parental HER2×HER2 bispecific antibody of MEDI4276 (SEQ ID NO: 52 and 53) [reference compound]
Cluster % (T47D cells [1]): 41%
Internalized Vesicles % (T47D cells [1]): 100%
Cluster % (T47D cells [2]): 28%
Internalized Vesicles % (T47D cells [2]): 100%
